Experimental data: patent publication US10286038B2, “Lysosome membrane protein 2 (LIMP-2) based peptides and related uses” (Northwestern University, priority 2016, dated 2019)

How the values were obtained:
[1] = target: T1, recombinant GC (Cerezyme) (Homo sapiens, UniProt P04062, R534H); test: recombinant GC activity assay; type: biochemical; conditions: tenfold molar excess of peptide, acid pH, relative to buffer control
T1 construct: purchased Genzyme Therapeutics, Boston, USA
T1 sequence (P04062 40-536 R534H): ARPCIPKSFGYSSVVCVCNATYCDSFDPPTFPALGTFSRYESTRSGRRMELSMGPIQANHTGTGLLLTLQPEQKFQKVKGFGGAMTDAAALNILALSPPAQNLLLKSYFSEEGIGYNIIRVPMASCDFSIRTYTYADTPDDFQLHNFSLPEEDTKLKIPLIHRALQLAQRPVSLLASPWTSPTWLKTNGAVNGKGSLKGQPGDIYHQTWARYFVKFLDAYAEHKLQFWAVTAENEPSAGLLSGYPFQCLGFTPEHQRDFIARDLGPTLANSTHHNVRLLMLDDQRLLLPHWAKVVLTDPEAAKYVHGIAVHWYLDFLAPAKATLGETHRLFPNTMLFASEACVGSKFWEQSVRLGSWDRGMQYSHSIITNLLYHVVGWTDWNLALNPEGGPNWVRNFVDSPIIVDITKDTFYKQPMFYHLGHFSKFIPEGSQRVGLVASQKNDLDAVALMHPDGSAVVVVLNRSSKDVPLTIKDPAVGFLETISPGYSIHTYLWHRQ
Method: (§1) Expression plasmids of LIMP-2 and human GC constructs were generated as described previously (1). For Western blotting nitrocellulose or PVDF membranes were used. EndoH/PNGaseF digests were performed according to manufacturer's instructions (New England Biolabs, Ipswich, USA). For co-immunoprecipitation experiments magnetic agarose G beads (Thermo Fisher Scientific, Waltham, USA) were utilized. Immunofluorescence studies were performed in cells as previously described (1, 3). Cellular co-localization of two proteins was determined by the Pearson's Index (35). Enzyme activity assays of cell lysates or recombinant protein were measured at acid pH using absorbent and fluorescent artificial substrates. For peptide studies, peptides were N-terminally tagged with biotin. If not stated otherwise, recombinant enzyme was incubated with a tenfold higher molarity of peptides. Conditions for pulldown experiments were kept at neutral pH. Protein modelling, molecular analyses, graphics and animations were performed with the UCSF Chimera package.
To determine the enzymatic activity of the recombinant enzymes, lyophilized enzymes were reconstituted in the NaPi buffer described above. The lyophilized samples of wild-type GC (Cerezyme®) and the custom-made recombinant N307S mutant enzyme contain 0.01% polysorbate 80 (Tween 80) (see prescription information for Cerezyme® at the website for Cerezyme®). As indicated in our experiments, the concentration of the detergent is sufficient to support active GC enzyme and to perform the in vitro GC activity assays without adding further detergents to the reaction mix. For enzyme activity assays of recombinant proteins, 0.1-0.2 nmol of GC (Cerezyme®; N370S) and LAMAN were used in the absence or presence of 10× the molar amount of LIMP-2-derived peptides (Table 1) or LIMP-2 ectodomain (1-2 nmol) (Table 3).
All activity assays were performed at acid pH.

[2] = tested on: endogenous GC in Cos 7 cells; conditions: biotinylated peptide, neutral pH
Method: For pulldown of endogenous and overexpressed GC from N2a cell lysates 20 nmol of LIMP-2-derived peptide (Helix 5 and 3×D) was incubated with 50 μl cell lysate at 4° C. overnight. The cells were harvested in EBC-buffer (Table 3). After blocking and equilibration of the streptavidin beads (see above) the cell lysate/peptide mixtures were added to the beads for 30 min. at room temperature. The supernatant was removed. After extensive washing of the beads with NaPhosphate buffer, the bound peptides and proteins were released from the beads by incubation with Laemmli buffer (see above). After centrifugation for 2 min. at 17,000×g the supernatant was removed (BOUND fraction) and subjected to SDS-Page and Western-blotting. An antibody against human GC (α-hGC, for details see Table 4) was used for detection.

[3] = target: T1, recombinant GC (Cerezyme); test: peptide pulldown of recombinant GC; type: binding; conditions: biotinylated peptide, tenfold molar amount, neutral pH, streptavidin beads
Method: as §1
All peptides were purchased from jpt Peptide Technologies (Berlin, GER). […] The concentration of the peptides as well as the recombinant proteins was determined spectroscopically (Nanodrop 2000c; Thermo Fisher Scientific, Waltham, USA). […]

recombinant GC = target: T2, recombinant GC (Homo sapiens, UniProt P04062, R534H); test: stabilization assay of recombinant GC at 37° C.; type: biochemical; conditions: recombinant GC incubated with peptide at 37° C.
T2 construct: purchased Genzyme Therapeutics, Boston, USA
T2 sequence (P04062 40-536 R534H): T1 sequence (P04062 40-536 R534H)
Method: Proteins were visualized by coomassie staining (CBB). […] See also FIG. 6.
To address the functional impact of the observed interaction between the helix 5 peptide and recombinant GC, we measured GC activity in the presence of a one- to tenfold molar excess of the helix 5 peptide. […] No effect on enzymatic activity after incubation with the helix 5 peptide or the LIMP-2 ectodomain could be found for recombinant α-mannosidase (LAMAN) further emphasizing the specificity of the helix 5 peptide on GC activity (FIG. 6E). […] To analyze if the increase in GC activity is due to stabilization of the enzyme, recombinant GC was incubated with the helix 5 and the control peptide at 37° C. and the activity of GC was measured at regular intervals (FIG. 3F).

Row | Substance | increase of recombinant GC enzyme activity [1] | co-precipitation of endogenous GC from cellular lysates [2] | co-precipitation of recombinant GC [3] | time to complete loss of GC enzymatic activity (recombinant GC) [h]
1 | KRVQDVIERFWDFIDQLSINTFGK [random helical control peptide, reference compound] | not able to increase | – | – | –
2 | Biotin-Ttds-KFERQLREDDEAMDKAYQQKLFVTHTVDEYGRKKRRQRRR [control 3×D TAT-peptide, reference compound] | comparable effect | – | – | –
3 | Biotin-Ttds-LREDDEAMDKAYQQKLFVTHTVDE [3×D control peptide, reference compound] | did not increase | only the wild-type helix 5 peptide specifically co-precipitated | only the wild-type helix 5 peptide specifically co-precipitated | ≤ 72
